# Results taken from patent US10954214B2 (Janssen Pharmaceutica NV, priority 2016, dated 2021).
# Legend:
# [1] = test system: IL6 secretion by OCI-LY3 ABC-DLBCL cells; test: Human IL6 Mesoscale assay (OCI-LY3); format: cell-based; details: 24 h
# Procedure: (§1) NFKB signaling regulates the secretion of multiple cytokines, including IL6 and IL10. Secretion of the cytokines IL6 and IL10 by TMD8 or OCI-LY3 ABC-DLBCL cells was measured using a mesoscale assay. Inhibition of NFKB signaling by MALT1 or BTK inhibitors results in a decrease of IL6/10 secretion.
# (§2) TMD8 or OCI-LY3 cells were propagated in RPMI-1640 (Sigma Aldrich) supplemented with 10% fetal bovine serum (HyClone), 1 mM sodium pyruvate (Invitrogen), 2 mM L-glutamine (Sigma Aldrich) and 1% PenStrep (Sigma Aldrich). Cell passage number should not exceed 30. Cells should be kept between 0.5-2.5 million cells per mL during culturing and cells should be supplemented every 2-3 days with fresh 50 μM beta-mercaptoenthanol. No beta-mercaptoethanol was used during the mesoscale assay.
# (§3) For the Mesoscale assay, 100,000 TMD8 or OCI-LY3 cells were seeded per well into black-colored 96-well plates with clear bottom (Corning #3904) and test compounds were added in 9 dilution steps (1:2) ranging from 15 μM to 58.6 nM (final DMSO concentration 0.3%). DMSO control wells were used to determine the maximum signal (High Control (HC)). Treatment with the BTK inhibitor RN486 in a dose range from 30 nM to 131 pM (9 dilutions of 1:2) served as a positive control for NFKB pathway inhibition and was used to determine the maximum inhibition (Low Control (LC)). Compounds and cells were incubated for 24 h at 37° C. and 5% CO2 (assay volume is 150 μL). After 24 h of incubation 50 μL of the supernatant was transferred to a MSD plate (V-Plex Proinflammation Panel 1 (human) kit, Mesoscale (MSD)) and incubated for 2 h with vigorous shaking (600 rpm) at room temperature. Following incubation, plates were washed 3× with PBS+0.05% Tween-20 and 25 μL detection antibody solution (IL6 & IL10 antibodies in diluent 3 (MSD)) was added per well followed by 2 h of incubation with vigorous shaking (600 rpm) at room temperature. After 3× washes with PBS+0.05% Tween-20, plates were incubated with 150 μL 2× Read Buffer T and read on SECTOR imager.
# [2] = molecular target: full-length MALT1 protein (Strep-MALT1(1-824)-His) (Homo sapiens (Human), UniProt Q9UDY8); test: MALT1 Biochemical Protease Assay (Ac-LRSR-AMC substrate); details: 10 nM FL MALT1, 200 μM Ac-LRSR-AMC, 4 h at RT; read-out: MALT1_Biochemical activity (Ac-LRSR-amc) IC50
# Chain of full-length MALT1 protein (Strep-MALT1(1-824)-His) (Q9UDY8 whole entry): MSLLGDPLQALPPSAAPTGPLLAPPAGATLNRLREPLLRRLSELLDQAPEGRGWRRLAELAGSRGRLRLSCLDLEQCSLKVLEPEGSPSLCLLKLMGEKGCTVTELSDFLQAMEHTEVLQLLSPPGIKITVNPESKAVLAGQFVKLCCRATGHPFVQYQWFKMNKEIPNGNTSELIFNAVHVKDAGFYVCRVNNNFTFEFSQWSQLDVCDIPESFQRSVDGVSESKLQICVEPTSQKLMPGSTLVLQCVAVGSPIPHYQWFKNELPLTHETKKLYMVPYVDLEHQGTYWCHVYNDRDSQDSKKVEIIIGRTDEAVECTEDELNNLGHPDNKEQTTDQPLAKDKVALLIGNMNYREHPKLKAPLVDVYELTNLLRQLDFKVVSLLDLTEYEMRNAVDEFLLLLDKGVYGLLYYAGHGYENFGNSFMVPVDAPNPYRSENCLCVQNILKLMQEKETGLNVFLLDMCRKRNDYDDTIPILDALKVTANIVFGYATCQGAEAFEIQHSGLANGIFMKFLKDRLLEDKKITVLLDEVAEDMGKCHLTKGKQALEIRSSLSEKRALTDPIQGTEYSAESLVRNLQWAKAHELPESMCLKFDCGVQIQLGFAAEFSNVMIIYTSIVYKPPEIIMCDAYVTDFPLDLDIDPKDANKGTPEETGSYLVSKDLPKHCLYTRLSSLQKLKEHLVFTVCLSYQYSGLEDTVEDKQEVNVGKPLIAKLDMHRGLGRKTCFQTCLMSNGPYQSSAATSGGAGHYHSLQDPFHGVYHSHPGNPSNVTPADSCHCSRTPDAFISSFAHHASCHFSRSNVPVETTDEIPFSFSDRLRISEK
# Summary of the method: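 Fluorescence from AMC release off the quenched LRSR substrate was read after a 4 h reaction at RT. Values were normalised to no-enzyme and uninhibited controls and fitted for IC50 and Hill coefficient.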
# [3] = test system: IL10 secretion by OCI-LY3 ABC-DLBCL cells; test: Human IL10 Mesoscale assay (OCI-LY3); format: cell-based; details: 24 h
# Procedure: as §1, §2, §3
Molecule,IC50 ([1]; Homo sapiens),IC50 [2],IC50 ([3]; Homo sapiens),IC50 [1],IC50 [3]
"Cc1cc(-n2nccn2)c(Cl)cc1NC(=O)c1cnn(-c2cnc(N)c3ccccc23)c1C(F)(F)F [Cpd 335, 1-(1-aminoisoquinolin-4-yl)-N-(5-chloro-2-methyl-4-(2H-1,2,3-triazol-2-yl)phenyl)-5-(trifluoromethyl)-1H-pyrazole-4-carboxamide]",132 nM,174 nM,60 nM,,
"O=C(Nc1ccc(-c2n[nH]c(=O)[nH]2)c(Cl)c1)c1cnn(-c2cccc3ncccc23)c1C(F)(F)F [Cpd 166, N-(3-chloro-4-(5-oxo-4,5-dihydro-1H-1,2,4-triazol-3-yl)phenyl)-1-(quinolin-5-yl)-5-(trifluoromethyl)-1H-pyrazole-4-carboxamide]",457 nM,229 nM,479 nM,,
"O=C(Nc1cnc(-n2nccn2)c(Cl)c1)c1cnn(-c2cnc(N3CC[C@@H](O)C3)c3ccccc23)c1C(F)(F)F [Cpd 427, (R)—N-(5-chloro-6-(2H-1,2,3-triazol-2-yl)pyridin-3-yl)-1-(1-(3-hydroxypyrrolidin-1-yl)isoquinolin-4-yl)-5-(trifluoromethyl)-1H-pyrazole-4-carboxamide]",204 nM,9 nM,158 nM,,
"Cc1ccc(-n2ncc(C(=O)Nc3ccnc(C(F)(F)F)c3)c2C(F)(F)F)c2ccnn12 [Cpd 207, 1-(7-methylpyrazolo[1,5-a]pyridin-4-yl)-5-(trifluoromethyl)-N-(2-(trifluoromethyl)pyridin-4-yl)-1H-pyrazole-4-carboxamide]",525 nM,331 nM,513 nM,,
"Cc1nc2cccc(-n3ncc(C(=O)Nc4cnc(-n5nccn5)c(C#N)c4)c3C(F)(F)F)n2n1 [Cpd 254, N-(5-cyano-6-(2H-1,2,3-triazol-2-yl)pyridin-3-yl)-1-(2-methyl-[1,2,4]triazolo[1,5-a]pyridin-5-yl)-5-(trifluoromethyl)-1H-pyrazole-4-carboxamide]",81 nM,282 nM,79 nM,,
"COC(=O)c1cnn(-c2ccc(NC(=O)c3cnn(-c4cccc5ncccc45)c3C(F)(F)F)cc2Cl)n1 [Cpd 256, methyl 2-(2-chloro-4-(1-(quinolin-5-yl)-5-(trifluoromethyl)-1H-pyrazole-4-carboxamido)phenyl)-2H-1,2,3-triazole-4-carboxylate]",257 nM,240 nM,240 nM,,
"CNc1ncc(-n2ncc(C(=O)Nc3cnc(-n4nccn4)c(C#N)c3)c2C(F)(F)F)c2cccc(F)c12 [Cpd 325, N-(5-cyano-6-(2H-1,2,3-triazol-2-yl)pyridin-3-yl)-1-(8-fluoro-1-(methylamino)isoquinolin-4-yl)-5-(trifluoromethyl)-1H-pyrazole-4-carboxamide]",646 nM,55 nM,794 nM,,
"N#Cc1cc(NC(=O)c2cnn(-c3cccc4c(N)nccc34)c2C(F)(F)F)cnc1-n1nccn1 [Cpd 328, 1-(1-aminoisoquinolin-5-yl)-N-(5-cyano-6-(2H-1,2,3-triazol-2-yl)pyridin-3-yl)-5-(trifluoromethyl)-1H-pyrazole-4-carboxamide]",741 nM,2570 nM,589 nM,,
"Cc1nc(-c2ccn(C)n2)c(Cl)cc1NC(=O)c1cnn(-c2cnc(N)c3ccccc23)c1C(F)(F)F [Cpd 333, 1-(1-aminoisoquinolin-4-yl)-N-(5-chloro-2-methyl-6-(1-methyl-1H-pyrazol-3-yl)pyridin-3-yl)-5-(trifluoromethyl)-1H-pyrazole-4-carboxamide]",155 nM,245 nM,123 nM,,
"Cc1nc(-n2nccn2)c(Br)cc1NC(=O)c1cnn(-c2cnc(N)c3ccccc23)c1C(F)(F)F [Cpd 343, 1-(1-aminoisoquinolin-4-yl)-N-(5-bromo-2-methyl-6-(2H-1,2,3-triazol-2-yl)pyridin-3-yl)-5-(trifluoromethyl)-1H-pyrazole-4-carboxamide]",69 nM,20 nM,37 nM,,
"N#Cc1cc(NC(=O)c2cnn(-c3cccc4c(=O)[nH]ccc34)c2C(F)(F)F)ccn1 [Cpd 356, N-(2-cyanopyridin-4-yl)-1-(1-oxo-1,2-dihydroisoquinolin-5-yl)-5-(trifluoromethyl)-1H-pyrazole-4-carboxamide]",295 nM,123 nM,209 nM,,
"O=C(Nc1cnc(-n2nccn2)c(Cl)c1)c1cnn(-c2cccc3ncccc23)c1Cl [Cpd 187, 5-Chloro-N-(5-chloro-6-(2H-1,2,3-triazol-2-yl)pyridin-3-yl)-1-(quinolin-5-yl)-1H-pyrazole-4-carboxamide]",162 nM,178 nM,112 nM,,
"N-(5-cyano-6-(2H-1,2,3-triazol-2-yl)pyridin-3-yl)-1-(imidazo[1,2-a]pyrazin-5-yl)-3-(trifluoromethyl)-1H-pyrazole-4-carboxamide [Cpd 275]",,138 nM,,240 nM,234 nM
"COc1ncc(NC(=O)c2cnn(-c3cccc4c(=O)[nH]ccc34)c2C(F)(F)F)cc1Cl [Cpd 345, N-(5-chloro-6-methoxypyridin-3-yl)-1-(1-oxo-1,2-dihydroisoquinolin-5-yl)-5-(trifluoromethyl)-1H-pyrazole-4-carboxamide]",79 nM,93 nM,58 nM,,
"CCc1cc(NC(=O)c2cnn(-c3cccc4nccn34)c2C(F)(F)F)c(CC)nc1-n1nccn1 [Cpd 196, N-(2,5-diethyl-6-(2H-1,2,3-triazol-2-yl)pyridin-3-yl)-1-(imidazo[1,2-a]pyridin-5-yl)-5-(trifluoromethyl)-1H-pyrazole-4-carboxamide]",83 nM,3160 nM,41 nM,,
"COCc1cnnn1-c1ncc(NC(=O)c2cnn(-c3cccc4ncccc34)c2C(F)(F)F)cc1Cl [Cpd 253, N-(5-chloro-6-(5-(methoxymethyl)-1H-1,2,3-triazol-1-yl)pyridin-3-yl)-1-(quinolin-5-yl)-5-(trifluoromethyl)-1H-pyrazole-4-carboxamide]",> 15100 nM,282 nM,12600 nM,,
"COc1ncc(-n2ncc(C(=O)Nc3cnc(-n4nccn4)c(Cl)c3)c2C(F)(F)F)c2ccccc12 [Cpd 421, N-(5-chloro-6-(2H-1,2,3-triazol-2-yl)pyridin-3-yl)-1-(1-methoxyisoquinolin-4-yl)-5-(trifluoromethyl)-1H-pyrazole-4-carboxamide]",457 nM,20 nM,479 nM,,
"O=C(Nc1cnc(-n2nccn2)c(Cl)c1)c1cnn(-c2cnc(C3CCCO3)c3cccc(C4CCCO4)c23)c1C(F)(F)F (stereo not drawn) [Cpd 366, 1-(1,5-bis(tetrahydrofuran-2-yl)isoquinolin-4-yl)-N-(5-chloro-6-(2H-1,2,3-triazol-2-yl)pyridin-3-yl)-5-(trifluoromethyl)-1H-pyrazole-4-carboxamide]",107 nM,8910 nM,89 nM,,
"Cc1nc(-n2nccn2)c(Cl)cc1NC(=O)c1cnn(-c2cnc(N3CC(O)C3)c3sccc23)c1C(F)(F)F [Cpd 433, N-(5-chloro-2-methyl-6-(2H-1,2,3-triazol-2-yl)pyridin-3-yl)-1-(7-(3-hydroxyazetidin-1-yl)thieno[2,3-c]pyridin-4-yl)-5-(trifluoromethyl)-1H-pyrazole-4-carboxamide]",589 nM,170 nM,427 nM,,
"O=C(Nc1cncc(Cl)c1)c1cnn(-c2cccc3c(=O)[nH]ccc23)c1C(F)(F)F [Cpd 353, N-(5-chloropyridin-3-yl)-1-(1-oxo-1,2-dihydroisoquinolin-5-yl)-5-(trifluoromethyl)-1H-pyrazole-4-carboxamide]",692 nM,115 nM,537 nM,,
"Cc1nc(-n2nccn2)c(C#N)cc1NC(=O)c1cnn(-c2cccc3scnc23)c1C(F)(F)F [Cpd 297, 1-(benzo[d]thiazol-4-yl)-N-(5-cyano-2-methyl-6-(2H-1,2,3-triazol-2-yl)pyridin-3-yl)-5-(trifluoromethyl)-1H-pyrazole-4-carboxamide]",135 nM,251 nM,115 nM,,
